Values joined by “and” are separate entries in the source; they are usually repeats but may differ in a detail not shown here. Equal entries are not always repeated. Active and inactive are the calls of the source.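 The calls were made as follows: active = EC50 no more than a set limit of log units above the highest dose; inactive = the rest.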
These compounds were tested against S. pyogenes SKKanGAS, kanamycin survival, BacTiterGlo, 6 h (assay: S. pyogenes SKKanGAS kanamycin growth inhibitors – SKKanGAS strain, luminescence, dose confirmation, streptokinase promoter inhibitor project, dose response (AID 1902);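 also: lower survival reflects blocked streptokinase promoter driving kanamycin resistance gene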).

In order of rising EC50:
1. CC1(C)N=C(N)N=C(N)N1c1ccccc1  0.325 µM
2. CC1(c2ccccc2)CC(C)(C)N2C(=O)/C(=C3\SC(=S)NC3=O)c3cccc1c32 (stereo not drawn)  0.43 µM
3. COc1cccc(/C=N/Nc2ccc([N+](=O)[O-])cn2)c1O  0.637 µM
4. Cc1onc(-c2ccccc2)c1C(=O)NC(=S)NNC(=O)c1ccco1  0.943 µM
5. COc1ccc2nc(Nc3nc4cc5c(cc4s3)OCO5)sc2c1  1.02 µM
6. O=c1c2cc(Br)ccc2nc(-c2ccc(Cl)cc2)n1O  1.07 µM
7. Cn1c(-c2c(N)n(C3CCCC3)c3nc4ccccc4nc23)nc2ccccc21  1.12 µM
8. CSc1nc(SCC(=O)O)c2sc3nc(-c4ccccc4)c4c(c3c2n1)CCC4  1.14 µM
9. CC/C(=C\C1CCCCC1)C(NP(=O)(c1ccccc1)c1ccccc1)c1ccccc1 (stereo not drawn)  1.14 µM
10. O=C(N/N=C/c1cc(Br)ccc1O)c1ccncc1  1.15 µM
11. Cc1cc(C)c2c(n1)sc1c(=O)n(CC(=O)c3ccccc3)cnc12  1.55 µM
12. O=C(N/N=C/c1cc(Cl)ccc1O)c1cccnc1  1.55 µM
13. COc1ccc(CCCC(=O)N/N=C/c2cccc(OC)c2O)cc1C  1.66 µM
14. CC(C)=CCc1c(O)c(CC=C(C)C)c2occ(-c3ccc(O)cc3)c(=O)c2c1O  1.86 µM
15. Cc1ccc(C)c(/C=C/C(=O)c2ccccc(=O)c2O)c1  1.9 µM
16. C[C@]12CC[C@@H]3c4ccc(OC(=O)c5ccccc5)cc4CC[C@H]3[C@@H]1CC[C@@H]2O  1.92 µM
17. CCC1=NN(C(=O)c2ccccc2O)C(O)(c2ccccc2)C1 (stereo not drawn)  1.94 µM
18. O=C(Nc1ccccc1Cl)/C(Cl)=C(\Cl)S(=O)c1ccccc1 (stereo not drawn)  1.98 µM
19. CCCCC(=O)NC(c1ccco1)c1cc(Cl)c2cccnc2c1O (stereo not drawn)  2.03 µM
20. CCCCCCn1c(=O)c(C(=O)N/N=C/c2cccc(F)c2)c(O)c2ccccc21  2.11 µM
21. CCCCCNC(=O)c1ccc2c(=O)[nH]c3c(C(=O)NCC4CCCO4)sc(=S)n3c2c1 (stereo not drawn)  2.17 µM
22. CCNC(=O)c1c(NC(=O)c2cc(-c3cc(C)ccc3O)n[nH]2)sc2c1CCCC2  2.44 µM
23. FC(F)(F)c1cccc(NC(=S)Nc2ccc(Cl)c(Cl)c2)c1  2.45 µM
24. CCC(CC)c1nn2c(N)c(/C=C3\C(C)=Nc4ccccc43)c(=O)nc2s1  2.57 µM
25. FC(F)Oc1ccccc1C1CC(c2ccc(Br)s2)Nc2ncnn21 (stereo not drawn)  2.83 µM
26. CC(C)Nc1nc(NC(C)C)nc(N(C)N)n1  3.07 µM
27. CC(=O)N(CCC(Cc1ccccc1)c1ccc2c(c1)OCO2)Cc1ccc(Cl)cc1 (stereo not drawn)  3.42 µM
28. CCOC(=O)Cc1c(C)nc2c(-c3cccc(Br)c3)c[nH]n2c1=O  3.53 µM
29. O=C(N/N=C/c1ccc([N+](=O)[O-])o1)c1ccc(NS(=O)(=O)c2cccs2)cc1  3.55 µM
30. COc1ccc(NC(=O)c2c[nH]n3c(=O)cc(C4CCN(C(=O)OC(C)(C)C)CC4)nc23)cc1Cl  3.8 µM
31. Clc1ccccc1CN(Cc1ccccc1)c1ncnc2nc[nH]c12  3.85 µM
32. CCn1cnc2sc(C(=O)Oc3cccc(C)c3)c(C)c2c1=O  4.08 µM
33. Cc1sc2ncnc(N/N=C/c3ccccc3O)c2c1C  4.09 µM
34. CCOC(=O)c1cnc(-n2nc(C)cc2C)nc1NCc1ccccc1  4.14 µM
35. CCN1CCN(Cc2ccc(NC(=O)c3cc(NC(=O)c4cc(-c5ccc(OC)cc5)n[nH]4)cc(OC)c3)cc2C(F)(F)F)CC1  4.26 µM
36. O=S(=O)(Nc1cccc2cccnc12)c1ccccc1  4.39 µM
37. Nc1c(S(=O)(=O)c2cccs2)c2nc3ccccc3nc2n1/N=C/c1cccc(O)c1  4.53 µM
38. Fc1ccc(-c2cc(C(F)(F)F)nc(N3CCCCC3)n2)cc1  4.68 µM
39. Cn1c(O)c(N=NC(=S)Nc2ccccc2F)c2cc(S(=O)(=O)N3CCOCC3)ccc21  5.09 µM
40. Cc1cc(N/N=C/c2cccc(Br)c2)nc2ccccc12  5.25 µM
41. Cc1ccc(/C=C/C(=O)c2ccc([N+](=O)[O-])o2)cc1  5.27 µM
42. NC(=O)N=Nc1c2[nH]c3ccccc3nc-2c2ccccc12  5.32 µM
43. CCCOc1ccc(/C(O)=C2/C(=O)C(=O)N(c3ccccn3)C2c2ccc(OC)cc2)cc1C (stereo not drawn)  6.28 µM
44. O=C(CC1SC(=Nc2ccccc2)N(CCc2c[nH]c3ccccc23)C1=O)Nc1ccccc1F (stereo not drawn)  7.21 µM
45. Cc1cccc(N2CCN(C(=O)c3ccc4nc(N5CCCCC5)sc4c3)CC2)c1C  7.63 µM
46. COc1ccc(NC(=O)CN(C)C(=O)/C=C/c2cn(-c3ccccc3)nc2-c2ccc(F)cc2)cc1  8.39 µM
47. C=CCc1cc(/C=C2/NC(=O)N(CC)C2=O)cc(OCC)c1OCc1ccc(C(=O)O)cc1  11.9 µM
48. COc1ccc(Cn2c(-c3ccco3)nc3oc4cc(OC)ccc4c(=O)c3c2=O)cc1  14.7 µM

For `O=C(COc1ccc(Cl)cc1Cl)Nc1ccc(-c2ccc(N3CCOCC3)nn2)cc1`, the EC50 was > 15 µM (inactive).
In the case of `FC(F)(F)c1cccc(NC(=S)N2CCCC2)c1`, the EC50 is reported as > 15 µM (inactive).
With `COc1ccccc1NS(=O)(=O)c1cc(NC(=S)NCC2CCCO2)ccc1C` (stereo not drawn) the EC50 was > 15 µM (inactive).
For `COC(=O)c1ccc(N2CCN(C)CC2)c(NC(=O)COc2ccc(C)cc2)c1`, the EC50 was > 15 µM (inactive).
In the case of `CN(C)c1ccnc2c[cH-]cc12.[Fe].c1ccc(-[c-]2[c-](-c3ccccc3)[c-](-c3ccccc3)[c-](-c3ccccc3)[c-]2-c2ccccc2)cc1` (stereo not drawn), the EC50 is reported as 1.96 µM and 0.56 µM.

— PubChem BioAssay AID1902 (Broad Institute, 2009)
